The text below walks through data of paper PMC6149824, “Design and Synthesis of New Benzothiazole Compounds as Selective hMAO-B Inhibitors” (Molecules : A Journal of Synthetic Chemistry and Natural …, 2017).

Entries after “also recorded” stand apart in the source; their conditions may differ.

The inhibition is the relative decrease from the control value, in per cent.

The target of data set [1] is T1, hMAO-B (Homo sapiens, UniProt P27338).
T1 sequence (P27338 1-520): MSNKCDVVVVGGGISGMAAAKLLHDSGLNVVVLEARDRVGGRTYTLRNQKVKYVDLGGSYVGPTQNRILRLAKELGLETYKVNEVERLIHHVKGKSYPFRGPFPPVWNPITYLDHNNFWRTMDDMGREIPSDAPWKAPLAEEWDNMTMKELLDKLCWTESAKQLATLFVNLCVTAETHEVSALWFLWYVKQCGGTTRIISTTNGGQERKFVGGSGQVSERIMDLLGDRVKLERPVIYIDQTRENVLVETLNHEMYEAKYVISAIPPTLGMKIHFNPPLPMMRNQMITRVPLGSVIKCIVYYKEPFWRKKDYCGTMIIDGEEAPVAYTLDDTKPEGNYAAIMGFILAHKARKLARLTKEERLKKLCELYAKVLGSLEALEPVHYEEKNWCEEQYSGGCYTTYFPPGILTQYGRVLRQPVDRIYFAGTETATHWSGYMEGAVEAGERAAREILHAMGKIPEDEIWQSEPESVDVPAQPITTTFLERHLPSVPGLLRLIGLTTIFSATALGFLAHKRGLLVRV
Description: in vitro fluorometric hMAO-B inhibition assay (Amplex Red). Format: biochemical. The method, then:
The method was performed in two steps, as previously described.
An enzyme inhibition assay was performed according to our recent study. […] After the incubation period, the reaction was started by adding a working solution (100 μL/well) ([…] Amplex Red reagent, 1 U/mL horseradish peroxidase and 1 mM p-tyramine) and all pipetting processes were performed using a Biotek Precision XS robotic system (BioTek Instruments, Winooski, VT, USA).
Control experiments were carried out simultaneously by replacing the inhibitor solution with 2% DMSO (20 μL). In order to check the probable inhibitory effect of inhibitors on horseradish peroxidase, a parallel reading was achieved by replacing enzyme solutions with 3% H2O2 solution (20 mM 100 μL/well). In addition, the probable capacity of the inhibitors to modify the fluorescence generated in the reaction mixture due to non-enzymatic inhibition was determined by mixing inhibitor and working solutions.
The specific fluorescence emission (used to obtain the final results) was calculated after subtraction of the background activity, which was determined from vials containing all components except the hMAO isoforms, which were replaced by phosphate buffer (100 μL/well). Blank, control and all concentrations of inhibitors were analyzed in quadruplicate and inhibition percent was calculated by using following equation: % Inhibition=(FCt2−FCt1)−(FIt2−FIt1)/FCt2−FCt1×100 where FCt2 is the fluorescence of a control well measured at t2 time; FCt1 is the fluorescence of a control well measured at t1 time; FIt2 is the fluorescence of an inhibitor well measured at t2 time; and FIt1 is the fluorescence of an inhibitor well measured at t1 time.
The IC50 values were calculated from a dose-response curve obtained by plotting the percentage inhibition versus the log concentration with the use of GraphPad PRISM software (version 5.0, GraphPad Software Inc., La Jolla, CA, USA).

Data set [2] in a line: cytotoxicity test (MTT) on NIH/3T3 cells. Format: cell-based, mouse. To be noted: mouse, NIH/3T3 mouse embryonic fibroblast cells (ATCC CRL-1658); MTT assay, 1000 µM to 0.316 µM; read-out: IC50 (cytotoxic activity against NIH/3T3 cell line). The method, then:
(§1) The healthy NIH/3T3 mouse embryonic fibroblast cell line (ATCC CRL1658), proposed by ISO (10993-5, 2009) for preliminary cytotoxicity screening of drug candidates, was used to evaluate the cytotoxicity of compound 3e. The IC50 value of the compound 3e is represented in Table 3.
(§2) NIH/3T3 mouse embryonic fibroblast cell line (ATCC® CRL-1658™, London, UK) was used in the cytotoxicity test and, initially, NIH/3T3 cells were incubated in Dulbecco’s Modified Eagle’s Medium (DMEM). NIH/3T3 cells were added to 96-well culture plates (10,000 cells/well). Synthesized compounds and reference agents were added to the 96-well culture plates at various concentrations ranging from 1000 µM to 0.316 µM. MTT assay was performed as previously described. Dose-response curves were plotted against compound concentrations applied to determine IC50 values.
Background: Formazan colour is commonly taken as a measure of viable cells.

Data set [3] deals with NIH/3T3 mouse embryonic fibroblast cell line. Description: cytotoxicity test (MTT) on NIH/3T3 cells. It is filed as cell-based. The protocol: as §1, §2

Consider `COc1ccc2sc(SCC(=O)NN=Cc3ccc([N+](=O)[O-])s3)nc2c1` [Compound 3e, 2-((5-Methoxybenzothiazol-2-yl)thio)-N′-((5-nitrothiophen-2-yl)methylene)acetohydrazide], for which the inhibition at 1000 µM in data set [1] (10^−3 M, read-out: MAO B Inhibition %) stood at 87.3%. In data set [1] (10^−3 and 10^−4 M), the “inhibition against hMAO-B (first screening step)” value is “more than 50%”. The inhibition at 100 µM in data set [1] (10^−4 M, read-out: MAO B Inhibition %) is 83.5%. Moreover, the IC50 in data set [1] (concentrations of 10^−5–10^−9 M, mean ± SD, read-out: MAO B IC50) was found to be 0.06 ± 0.002 µM; in data set [2] it was 19 ± 1.03 µM. Moreover, the “fold IC50 against NIH/3T3 higher than IC50 against hMAO-B” value in data set [3] (IC50 NIH/3T3 vs IC50 hMAO-B) is recorded as “ca. 300 fold”. The “cytotoxicity (in words)” value in data set [3] (NIH/3T3, at its effective concentration) is reported as “not cytotoxic; also recorded: non-cytotoxic”.
